Test results taken from PMC8523698, “Preclinical characterization of an intravenous coronavirus 3CL protease inhibitor for the potential treatment of COVID19” (Nature Communications, 2021).
Several values for one entry are separate records, joined by “and”; a condition that tells them apart may be missing. Equal values may be shown once. Read-outs that look alike come from different tables or passages of the source.

What was measured:
[1] = In vitro micronucleus formation; assay type: cell-based
CYP2C8 = target: T1, CYP2C8 (Homo sapiens, UniProt P10632); test: Reversible CYP inhibition in human liver microsomes; details: for activity at 0.1 µM / activity at 0.214 µM / activity at 0.979 µM / activity at 2.09 µM / activity at 4.48 µM / activity at 20.5 µM / activity at 43.8 µM / activity at 93.5 µM / activity at 200 µM: pH 7.4, Percent of Control Activity
T1 sequence (P10632 1-490): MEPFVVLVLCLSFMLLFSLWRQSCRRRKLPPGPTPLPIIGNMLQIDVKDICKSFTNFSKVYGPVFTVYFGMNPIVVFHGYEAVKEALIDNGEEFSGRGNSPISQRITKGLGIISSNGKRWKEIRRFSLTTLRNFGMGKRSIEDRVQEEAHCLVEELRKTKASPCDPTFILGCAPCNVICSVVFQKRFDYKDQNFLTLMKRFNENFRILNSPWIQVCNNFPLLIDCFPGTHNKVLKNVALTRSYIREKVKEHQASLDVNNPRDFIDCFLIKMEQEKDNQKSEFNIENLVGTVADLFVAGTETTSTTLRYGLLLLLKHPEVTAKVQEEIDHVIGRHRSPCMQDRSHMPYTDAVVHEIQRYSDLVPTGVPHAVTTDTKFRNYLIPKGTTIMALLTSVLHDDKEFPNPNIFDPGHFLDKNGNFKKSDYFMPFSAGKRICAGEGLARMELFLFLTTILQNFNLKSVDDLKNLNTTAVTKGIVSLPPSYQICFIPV

OATP1B3 = target: T2, OATP1B3 (Homo sapiens, UniProt Q9NPD5); test: Transporter inhibition using transfected HEK293 cells
T2 sequence (Q9NPD5 1-702): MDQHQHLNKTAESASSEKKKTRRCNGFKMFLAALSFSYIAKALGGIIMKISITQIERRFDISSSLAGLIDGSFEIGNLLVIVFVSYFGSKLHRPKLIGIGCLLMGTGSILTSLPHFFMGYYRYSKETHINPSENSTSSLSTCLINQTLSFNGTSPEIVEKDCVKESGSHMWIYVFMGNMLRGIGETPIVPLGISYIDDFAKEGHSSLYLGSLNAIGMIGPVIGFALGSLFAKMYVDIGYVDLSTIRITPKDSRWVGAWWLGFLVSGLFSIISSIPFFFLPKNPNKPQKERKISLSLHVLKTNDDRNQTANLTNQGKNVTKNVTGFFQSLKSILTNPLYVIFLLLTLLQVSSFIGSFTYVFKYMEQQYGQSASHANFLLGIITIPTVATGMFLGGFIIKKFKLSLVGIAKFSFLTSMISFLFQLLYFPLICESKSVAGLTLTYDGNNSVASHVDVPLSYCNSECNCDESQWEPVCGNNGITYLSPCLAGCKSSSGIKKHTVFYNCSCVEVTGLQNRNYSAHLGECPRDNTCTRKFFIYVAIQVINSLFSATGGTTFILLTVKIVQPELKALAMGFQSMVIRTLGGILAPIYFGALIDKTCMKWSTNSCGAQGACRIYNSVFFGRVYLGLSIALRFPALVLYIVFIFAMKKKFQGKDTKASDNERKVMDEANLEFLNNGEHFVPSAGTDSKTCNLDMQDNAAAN

CYP3A4/5 = test: Reversible CYP inhibition in human liver microsomes

COc1cccc2[nH]c(C(=O)N[C@@H](CC(C)C)C(=O)N[C@@H](C[C@@H]3CCNC3=O)C(=O)CO)cc12 [PF-00835231]
micronuclei formation [1]: did not induce micronuclei formation | Percent of Control Activity (CYP2C8; CYP 2C8, 0.1 µM, 30-Minute Preincubation, 0.1 µM): 98.0% and 103.9% | Percent of Control Activity (CYP2C8; CYP 2C8, 0.1 µM, Zero-Minute Preincubation, 0.1 µM): 104.8% and 112.8% | Percent of Control Activity (CYP2C8; CYP 2C8, 0.214 µM, 30-Minute Preincubation, 0.214 µM): 93.1% and 90.6% | Percent of Control Activity (CYP2C8; CYP 2C8, 0.214 µM, Zero-Minute Preincubation, 0.214 µM): 107.5% and 109.2% | Percent of Control Activity (CYP2C8; CYP 2C8, 0.979 µM, 30-Minute Preincubation, 0.979 µM): 105.7% and 92.9% | Percent of Control Activity (CYP2C8; CYP 2C8, 2.09 µM, 30-Minute Preincubation, 2.09 µM): 93.9% and 94.5% | Percent of Control Activity (CYP2C8; CYP 2C8, 2.09 µM, Zero-Minute Preincubation, 2.09 µM): 100.1% and 105.9% | Percent of Control Activity (CYP2C8; CYP 2C8, 4.48 µM, 30-Minute Preincubation, 4.48 µM): 91.6% and 90.7% | Percent of Control Activity (CYP2C8; CYP 2C8, 4.48 µM, Zero-Minute Preincubation, 4.48 µM): 107.2% and 107.1% | Percent of Control Activity (CYP2C8; CYP 2C8, 20.5 µM, 30-Minute Preincubation, 20.5 µM): 94.2% and 94.7% | Percent of Control Activity (CYP2C8; CYP 2C8, 20.5 µM, Zero-Minute Preincubation, 20.5 µM): 95.8% and 108.3% | Percent of Control Activity (CYP2C8; CYP 2C8, 43.8 µM, 30-Minute Preincubation, 43.8 µM): 90.3% | Percent of Control Activity (CYP2C8; CYP 2C8, 43.8 µM, Zero-Minute Preincubation, 43.8 µM): 96.9% and 95.4% | Percent of Control Activity (CYP2C8; CYP 2C8, 93.5 µM, 30-Minute Preincubation, 93.5 µM): 68.7% and 77.7% | Percent of Control Activity (CYP2C8; CYP 2C8, 93.5 µM, Zero-Minute Preincubation, 93.5 µM): 87.1% and 95.1% | Percent of Control Activity (CYP2C8; CYP 2C8, 200 µM, 30-Minute Preincubation, 200 µM): 65.4% and 64.5% | Percent of Control Activity (CYP2C8; CYP 2C8, 200 µM, Zero-Minute Preincubation, 200 µM): 78.5% and 82.2% | IC50 (CYP2C8; human, microsomes, pH 7.4): > 200 µM | activity at 0.1 µM (CYP2C8; human, microsomes, CYP 2C8, 0.1 µM, 30-Minute Preincubation): 97.4% | activity at 0.1 µM (CYP2C8; human, microsomes, CYP 2C8, 0.1 µM, Zero-Minute Preincubation): 99.7% | activity at 0.214 µM (CYP2C8; human, microsomes, CYP 2C8, 0.214 µM, 30-Minute Preincubation): 91% | activity at 0.214 µM (CYP2C8; human, microsomes, CYP 2C8, 0.214 µM, Zero-Minute Preincubation): 103% | activity at 0.979 µM (CYP2C8; human, microsomes, CYP 2C8, 0.979 µM, 30-Minute Preincubation): 98.3% | activity at 0.979 µM (CYP2C8; human, microsomes, CYP 2C8, 0.979 µM, Zero-Minute Preincubation): 108% | activity at 2.09 µM (CYP2C8; human, microsomes, CYP 2C8, 2.09 µM, 30-Minute Preincubation): 92.8% | activity at 2.09 µM (CYP2C8; human, microsomes, CYP 2C8, 2.09 µM, Zero-Minute Preincubation): 110% | activity at 4.48 µM (CYP2C8; human, microsomes, CYP 2C8, 4.48 µM, 30-Minute Preincubation): 85.8% | activity at 4.48 µM (CYP2C8; human, microsomes, CYP 2C8, 4.48 µM, Zero-Minute Preincubation): 104% | activity at 20.5 µM (CYP2C8; human, microsomes, CYP 2C8, 20.5 µM, 30-Minute Preincubation): 86% | activity at 20.5 µM (CYP2C8; human, microsomes, CYP 2C8, 20.5 µM, Zero-Minute Preincubation): 93.6% | activity at 43.8 µM (CYP2C8; human, microsomes, CYP 2C8, 43.8 µM, 30-Minute Preincubation): 82.6% | activity at 43.8 µM (CYP2C8; human, microsomes, CYP 2C8, 43.8 µM, Zero-Minute Preincubation): 91.9% | activity at 93.5 µM (CYP2C8; human, microsomes, CYP 2C8, 93.5 µM, 30-Minute Preincubation): 76.7% | activity at 93.5 µM (CYP2C8; human, microsomes, CYP 2C8, 93.5 µM, Zero-Minute Preincubation): 91.2% | activity at 200 µM (CYP2C8; human, microsomes, CYP 2C8, 200 µM, 30-Minute Preincubation): 62.8% | activity at 200 µM (CYP2C8; human, microsomes, CYP 2C8, 200 µM, Zero-Minute Preincubation): 79.6% | IC50 (OATP1B3): 51.6 µM | IC50 (OATP1B3; human, HEK293 cells stably transfected with OATP1B3, pH 7.4, probe rosuvastatin (0.5 µM)): > 20 µM | Percent of Control Activity (CYP3A4/5; CYP 3A4/5 (mdz), 0.214 µM, 30-Minute Preincubation): 105.3% | Percent of Control Activity (CYP3A4/5; CYP 3A4/5 (mdz), 0.979 µM, 30-Minute Preincubation): 106.9% | Percent of Control Activity (CYP3A4/5; CYP 3A4/5 (mdz), 2.09 µM, 30-Minute Preincubation): 110.4% | Percent of Control Activity (CYP3A4/5; CYP 3A4/5 (mdz), 4.48 µM, 30-Minute Preincubation): 94.3% | Percent of Control Activity (CYP3A4/5; CYP 3A4/5 (mdz), 20.5 µM, 30-Minute Preincubation): 83.5% | Percent of Control Activity (CYP3A4/5; CYP 3A4/5 (mdz), 20.5 µM, Zero-Minute Preincubation): 117.3% | Percent of Control Activity (CYP3A4/5; CYP 3A4/5 (mdz), 43.8 µM, 30-Minute Preincubation): 84.8% | Percent of Control Activity (CYP3A4/5; CYP 3A4/5 (mdz), 93.5 µM, 30-Minute Preincubation): 72.6% | Percent of Control Activity (CYP3A4/5; CYP 3A4/5 (mdz), 200 µM, 30-Minute Preincubation): 50.6% and 46.7% | Percent of Control Activity (CYP3A4/5; CYP 3A4/5 (mdz), 200 µM, Zero-Minute Preincubation): 109.5% | Percent of Control Activity (CYP3A4/5; CYP 3A4/5 (tst), 0.214 µM, 30-Minute Preincubation): 110.1% | Percent of Control Activity (CYP3A4/5; CYP 3A4/5 (tst), 0.214 µM, Zero-Minute Preincubation): 116.0% and 141.9% | Percent of Control Activity (CYP3A4/5; CYP 3A4/5 (tst), 0.979 µM, 30-Minute Preincubation): 122.3%
